Results reported in US20260219274A1, “POLYOL SWEETNERS AND CARDIOVASCULAR AND THROMBOTIC EVENT RISK” (THE CLEVELAND CLINIC FOUNDATION, priority 2023, published 2026).

Tests used:
[1] = test system: human whole blood; test: Whole blood in vitro thrombosis assay (collagen-coated microfluidic chip); type: cell-based
Protocol: Shear flow experiments of whole blood were performed with a Cellix Microfluidics System (Cellix, Dublin, Ireland) as previously described and outlined in additional methods.^41-43 The extent of platelet activation and adhesion to the collagen matrix was quantified using computer assisted tomographic analyses, as previously described.^40
Shear flow experiments of whole blood were performed with a Cellix Microfluidics System (Cellix, Dublin, Ireland) as previously described.^6-8 Before use, the micro channels of a Vena8 Fluoro+ biochip were coated with type 1 collagen (15 μL; 50 μg/mL) and each channel of the biochip then washed with PBS using the Mirus Nanopump. Images were taken with an HC Plan Apo 20X/0.7NA lens on a Leica DMI6000 inverted microscope equipped with an environmental chamber and a Hamamatsu ImagEM cooled CCD camera. […] Images of platelets adhering to the collagen matrix were recorded every 5 s. […] The extent of platelet activation and adhesion to the collagen matrix was quantified using computer assisted tomographic analyses as previously described.^5 Briefly, images of CD42b stained platelet thrombi were quantified using Image Pro plus software (Media Cybernetics, Rockville, Maryland, USA). The intensity threshold was chosen to select for specific staining and the integrated optical density (IOD, Area×Intensity) quantified. […]

[2] = design: species or system mice; conditions: mouse, in vivo
Protocol: FIG. 11. […] Mice were gavaged with roughly molar equivalent levels of either xylitol alone (500 mg/kg in water) or erythritol alone (400 mg/kg), or both compounds (500 mg/kg xylitol and 400 mg/kg erythritol). Time-dependent changes in levels of xylitol and erythritol were quantified using LC-MS/MS in plasma (Panel A), urine (Panel B), and feces (Panel C) for the three groups of mice. At baseline, both xylitol and erythritol are present in mouse plasma at low levels (0.5-1.0 μM). […] Reported is content of xylitol and erythritol per ug of wet feces.
Stable-isotope-dilution LC-MS/MS was developed to specifically quantify xylitol in human and mouse plasma, urine and feces (fecal pellets were dissolved in water and supernatant subjected to LC-MS/MS). Ice cold methanol (800 μL) and internal standard (^13C2-arabitol) were added to the plasma samples (20 μL) or urine (20 μL) previously diluted in MQ water, followed by vortexing and centrifuging (21,000×g; 4° C. for 15 min). The clear supernatant (800 μL) was transferred into a clean, labeled glass tubes (Borosilicate glass 12×75 mm) and dried in a speed vacuum concentrator (Speed vac plus, SC210, Thermo Sevant). Acetylation was used since xylitol is poorly ionizable in order to achieve better retention on the reverse phase column and separation from other structural isomers as well as better ionization to achieve better sensitivity. The dry residue was reconstituted in acetic anhydride (100 μL) and 4-Dimethylaminopyridine (DMAP) in pyridine (100 μl; 1 mg/mL), sealed with safety caps, vortexed and heated (45 min at 80° C.) followed with drying under nitrogen. Dried residues were dissolved in HCl in water (0.1 M; 0.5 mL) and extracted with ethylacetate (2.0 mL). Ethylacetate layer was transferred into a clean glass tube (Borosilicate glass 12×75 mm) and dried under nitrogen. The dry residue was reconstituted in ammonium formate in a mixture of methanol:water (100 μL; 50:50 v/v with 10 mM ammonium formate), tubes were vortexed and liquid was transferred to glass vials with micro-insets and caped. LC-MS/MS analysis was performed on a chromatographic system consisting of two Shimadzu LC-30 AD pumps (Nexcra X2), a CTO 20AC oven operating at 30° C., and a SIL-30 AC-MP autosampler in tandem with a triple quadruple mass spectrometer (8050 series, Shimadzu Scientific Instruments, Inc., Columbia, MD, USA). For chromatographic separation, a Kinetex C18 column (50 mm×2.1 mm; 2.6 μm) (Cat #00B-4462-AN, Phenomenex, Torrance, CA) was used. […] Accuracy and precision of the method to quantify xylitol (separated from its structural isomers arabitol and ribitol) were assessed by a standard addition method of pure synthetic standard into different plasma pools. The accuracy of xylitol measurement was determined by the method of standard additions^12 using three different plasma pools, and was 2.4-2.8%. Intra- and inter-day coefficients of variation (CVs), measured by multiple analysis of three different control samples, were 1.2-8.9% and 10.9-11.5%, respectively. Freeze/thaw stability was determined over the five cycles and it was less than 7% for xylitol. The limit of quantification (LOQ) was defined (by convention) as the level at which xylitol was measured within the matrix (plasma) with a peak having signal-to-noise-ratio of 10:1. Limit of detection (LOD) was determined to be the lowest concentration of xylitol in the sample with a signal-to-noise ratio ≥3. […]

## OC[C@@H](O)[C@@H](O)CO [erythritol]
[1]; erythritol (45 μM), physiological shear conditions
  rate of collagen-dependent platelet adhesion and thrombus formation: significant enhancement
[2]
  baseline plasma level: 0.5 to 1.0 µM
[2]; po
  oral absorption in mice: rapidly absorbed

## OC[C@@H](O)[C@H](O)[C@@H](O)CO [xylitol]
[1]; xylitol, physiological shear flow
  rate of collagen-dependent platelet adhesion and spreading: substantially accelerated
[2]
  baseline plasma level: 0.5 to 1.0 µM
  postprandial increase in urine: Significant xylitol increases also were not observed
  recovery in feces: the majority of xylitol is recovered in feces
